In article PMC8247886, “Getting a Grip on the Undrugged: Targeting β‐Catenin with Fragment‐Based Methods” (Chemmedchem, 2021):
Converted amounts (≈) assume the structure as drawn.

Key:
β-catenin141–305 [1] = target: T1, β-catenin141–305 (Homo sapiens, UniProt P35222); test: Microscale Thermophoresis (MST) screening and Kd determination; format: binding
T1 construct: Amino acids 141-305 of uniprot ID: P35222; GST (cleaved yes); made in house; host or cells: E. coli BL21 (DE3)
T1 sequence (P35222 141-305): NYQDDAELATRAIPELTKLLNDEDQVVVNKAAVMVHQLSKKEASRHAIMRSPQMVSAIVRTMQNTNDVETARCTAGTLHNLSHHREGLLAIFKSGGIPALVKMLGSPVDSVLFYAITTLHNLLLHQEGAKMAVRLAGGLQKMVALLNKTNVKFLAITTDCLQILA
Experimental: buffer (Tris 25 mM, pH 7.5, NaCl 150 mM) containing 2% DMSO-d6. A stock solution of β-catenin135-663 (12.5 µM) was dialyzed before into Tris 25 mM pH 7.6 NaCl 150 mM and centrifuged at 4° C at 15000 rpm for 20 minutes. Intensity ratios Ilogsy/I1D are derived from scaling of the 1D intensity to the corresponding LOGSY intensity. STD GEMs were acquired with 1.5 µM […]
2.0; and 3.0 seconds for the saturation time build up curves to determine the initial rate constants2.
STD experiments were acquired with on and off resonance saturation at +0.1ppm and -40ppm respectively with 1048 scans each.
Solubility of compounds was determined in NMR buffer at pH 7.5 (see above) by integrating the signal of 250 µM maleic acid as an external standard relative to the integrals of the ligands. If the intended concentrations of 500 µM respective 2000 µM were reached the value is reported as > 500 µM or > 2000 µM. Compound 3 only reached a concentration of 1000 µM according to the QNMR experiment even though 2000 µM was intended, it’s solubility is therefore reported as […]
Microscale Thermophoresis.
Fluorescence labeling of β-catenin141-305 with the NT647 dye was achieved using the Monolith NT.115 Protein Labeling Kit RED-NHS according to the manufacturer’s protocol (NanoTemper Technologies, Munich, Germany). The BCL9 peptide was used as positive control for assay development to achieve a reliably detectable change in the thermophoretic mobility ( ΔFnorm). […]
Final assay conditions were 50 nM NT647 labeled β-catenin141-305 in PBS pH 6.8 supplemented with 100 mM NaNO3, 0.5 mM TCEP and 0.05% Tween-20 at 25° C. Fragment screening detected […]
by MST was carried out as previously described8,9. […] Manual inspection of all MST traces was used to reject non-standard traces stemming from protein aggregation, bleaching, or fluorescence quenching. ΔFnorm values (ΔFnorm=Fhot/Fcold) were calculated and the mean values of the duplicates were compared to the mean values of the DMSO negative control. […] Protein integrity over the entire FBS was monitored by the BCL9 peptide positive control. […]

[2] = Solubility in NMR buffer at pH 7.5 by quantitative NMR (maleic acid external standard); format: physicochemical; conditions: NMR buffer (Tris/NaCl with 2% DMSO-d6), aqueous buffer, kinetic from dmso stock; NMR buffer pH 7.5; intended concentration 500 or 2000 μM; read-out: Solub. pH 7.5
Experimental: buffer (Tris 25 mM, pH 7.5, NaCl 150 mM) containing 2% DMSO-d6. […]
Solubility of compounds was determined in NMR buffer at pH 7.5 (see above) by integrating the
signal of 250 µM maleic acid as an external standard relative to the integrals of the ligands. If the
intended concentrations of 500 µM respective 2000 µM were reached the value is reported as >
500 µM or > 2000 µM. […]

β-catenin141–305 [3] = target: T1, β-catenin141–305; test: 2D 15N NMR (TROSY/HSQC/HMQC) detected binding and Kd titration
Experimental: The construct for expression of β-catenin141-305 (Amino acids 141-305 of uniprot ID: P35222) is based on the previously reported R4 construct1. The plasmid was used to transform E. coli, strain BL21 (DE3) cells (Invitrogen). For protein expression, an overnight culture in LB-medium supplemented ampicillin (100 µg/mL) at 37 °C was prepared and diluted the next day with fresh 2xYT-medium. At OD600 of 0.8 the culture was cooled down to 18 °C and after induction with 0.5 mM IPTG incubated for 20 h. Cell pellets obtained by centrifugation at 5000 rpm were stored at - 20 °C. Cells were solubilized in buffer A (2X Dulbecco’s PBS; 500 mM NaCl; 10 % Glycerol; 0.5 mM TCEP; cOmplete™ Protease Inhibitor Cocktail; pH 7.4) and disrupted by sonication (Sonopuls, Bandelin) on ice. After 30 min the sonicated lysate was clarified by centrifugation (50 min, 13500 rpm, 4 °C). The supernatant was mixed with 20 mL Glutathione Sepharose® 4B resin (GE Healthcare) slurry, washed in lysis buffer, and steered for 3 hours on ice. The beads were spun down, loaded into a XK16 column cartridge and washed with lysis buffer until baseline. The protein was eluted with buffer B (2X Dulbecco’s PBS; 500 mM NaCl; 10 % Glycerol; 0.5 mM TCEP;; pH 7.4) + 25 mM L-Glutathione reduced. After cleavage with 2000 units Human Alpha Thrombin (Enzyme Research Laboratories) at room temperature overnight, the protein was collected in the flow-through fraction of a second GST run (GSTrap HP 5 mL column; GE Healthcare) using buffer B. The flow-through was concentrated by centrifugation using an Amicon© Ultra 15 mL Centrifugal Filter (Merck Millipore) and loaded onto a HiLoad Superdex S75 column (GE Healthcare) equilibrated with 50 mM Tris; 200 mM NaCl; 3 mM DTT; pH 8.
Fractions were analyzed by SDS-PAGE and fractions containing the desired protein were pooled and concentrated with an Amicon© Ultra 15 mL Centrifugal Filter (Merck Millipore). […]
For confirmation of hits obtained from STD-NMR by 2D 15N TROSY NMR4 a Bruker Avance III 600 MHz instrument with a 5 mm cryo-TCI probe and z-gradient was used. The experimental set up (automated sample preparation and transfer into the magnet by a Tecan Freedom Evo pipetting robot and a Bruker Sample Rail system, respectively) was identical. Each sample contained 25 uM 15N labeled β-catenin141-305 25 mM sodium phosphate, 150 mM sodium chloride, 100 mM sodium nitrate, 0.5mM TCEP pH 6.8 in H2O at 25 °C and 8% (v/v) D2O. The protein was incubated with 500 uM fragment in a 2.5 mm NMR tube at 25 °C and a d6DMSO concentration of 1%. Spectra were recorded with 48 transients and 64 data points in the indirect dimension. Manual comparison of the spectrum in the presence of the to be tested fragment with the DMSO reference spectrum reveal either line broadening or chemical shift perturbation of cross peaks. Both effects are indicative for compound binding. All processing and analysis was done with the Topspin 2.1 software (Bruker BioSpin). Further spectral comparisons were performed with the FELIX software package (Felix NMR Inc.) to combine manual with automated analysis5. […]
700MHz spectrometer equipped with a cryogenically cooled 5mm TCI probe. […]
The
WaterLOGSY pulse sequence was used as described before7. Selective water inversion was achieved with a double excitation sculpting element employing water selective Gaussian refocusing pulses (inversion bandwidth of 0.5 ppm, pulse length of 7.5 ms). The number of scans was set to 2048. Sample concentrations were 0.5 mM ligand and 0.25–10 µM β-catenin135-663 in […]

β-catenin141–305 [4] = target: T1, β-catenin141–305; test: Surface Plasmon Resonance (SPR) Kd determination; format: binding; conditions: mean of three independent experiments ± SD; 1:1 steady-state fit
Experimental: Surface Plasmon Resonance (SPR)
A Biacore T200 instrument was used for SPR analysis, β-catenin141-305 was pre-diluted to a concentration of 0.1 mg/mL with 10 mM sodium acetate buffer, pH 5.0 and immobilized at a density of 6000 –7000 response units on flow cell 2 of a Biacore CM5 chip. Carbonic anhydraseII served as a reference protein on flow cell 3 and flow cell 1 was kept blank and used as the reference surface. A mixture of 20 mM Tris, pH 7.5, 150 mM NaCl, 0.5 mM TCEP, 0.005% Tween20, 2 % dimethyl sulfoxide was used as assay buffer. After pre -equilibration of the chip with 10 blank injections, the Kd measurements were performed by injecting a concentration series of analyte (9 concentrations, 1:1 dilutions). BCL9 347-392 served as a positive control. K d values were determined by global fitting of the steady-state response for each of the 9 concentrations to a 1:1 interaction model using the Biacore T200 evaluation software. Each compound was injected three times and […]
average Kd values were calculated from the repeats. The reported data are the mean values of three independent experiments ± standard deviations. […]
Glutamax Supplement (Thermo Fisher Scientific, 35050061) with 10% FCS (GE Healthcare, SH30071.03). Transfections were performed with Lipofectamine LTX Reagent (Thermo Fisher, 15338100) according the manufacturer’s instructions.

β-catenin = target: β-catenin; set-up: method as in PMID 11237626; conditions: read-out: binding affinity to β-catenin; cited from earlier work
[5] = 15N NMR titration, single titration, mean of curves of selected cross peaks ± SD, read-out: HSQC Kd

Row | solubility [2] [µM] | Kd (β-catenin141–305 [3]; [5]) [µM] | Kd (β-catenin141–305 [4]) [µM] | Compound | further results
1 | > 500 |  |  | CC1SCC(=O)Nc2cc(Cl)ccc21 (stereo not shown) [Compound 2] | Kd (β-catenin141–305 [1]; 50 nM labeled β-catenin141–305, single titration): 820 ± 320 µM; MST binding signal ΔΔF nom (β-catenin141–305 [1]; 500 μM compound, 1 % DMSO, standard deviation with DMSO 1.8‰): 7.5 ‰
2 | 1000 (≈ 252 µg/mL) | 1100 ± 255 |  | CN1CC(c2ccccc2)Nc2ccccc2C1=O (stereo not shown) [Compound 3] | 
3 | > 2000 | 2260 ± 1260 | > 10000 | CN1C[C@@H](c2ccccc2)Oc2ccccc2C1=O [Compound 4] | 
4 | > 2000 | > 10000 | > 10000 | CN1C[C@H](c2ccccc2)Oc2ccccc2C1=O [Compound 5] | 
5 | > 2000 | 915 ± 303 | 1390 ± 46 | CN1C[C@@H](c2cccc(C#N)c2)Oc2ccccc2C1=O [Compound 6] | Kd (β-catenin141–305 [3]; titration curve of single cross peak D207, read-out: NMR Kd, cross peak D207): 1010 µM; Kd (β-catenin141–305 [3]; titration curve of single cross peak G245, read-out: NMR Kd, cross peak G245): 575 µM; Kd (β-catenin141–305 [3]; titration curve of single cross peak V208, read-out: NMR Kd, cross peak V208): 1160 µM
6 | > 2000 | > 10000 | > 10000 | CN1C[C@H](c2cccc(C#N)c2)Oc2ccccc2C1=O [Compound 7] | chemical shift perturbations (CSPs) in 2D 15N NMR (β-catenin141–305 [3]; 500 μM compound): did not show any CSPs
7 |  |  |  | TCF4: transcription factor, natural binding partner of β-catenin | Kd (β-catenin): ~0.02 µM
